Measurements from the supplement of paper PMC4862054.

Legend:
Details in all cases: incubation time: 72 h
MDA-MB-468 [1] = assay: drug sensitivity score (DSS), CellTiter-Blue viability (DSS (AUC-based score)); higher = stronger viability inhibition; extreme values may be limits of the assay
Experimental: (§1)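 DSRT with the CellTiter-Blue (resazurin reduction) viability readout, fluorescence 560/590 nm, 72 h incubation. Plates were normalised to DMSO and benzethonium chloride controls. DSS is computed from the area under the fitted dose-response curve (5 or 9 concentrations).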

HCC1143 = assay: as above
Experimental: as §1

CAL-51 = assay: as above
Experimental: as §1

SK-BR-3 [2] = assay: as above
Experimental: as §1

HDQ-P1 [3] = assay: as above
Experimental: as §1

CAL-148 [4] = assay: as above
Experimental: as §1

CAL-120 = assay: as above
Experimental: as §1

CAL-85-1 [5] = assay: as above
Experimental: as §1

BT-474 = assay: normalised viability (% of control), CellTiter-Blue; higher = more viable cells (about 100 = DMSO control)
Outline: (§2)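 After 72 h on compound-loaded 384-well plates, breast cancer cell lines received 2.5 µl CellTiter-Blue reagent for 2 h at 37 °C. Fluorescence at 560/590 nm was scaled per plate so that vehicle was 100 and a positive kill control was 0. The value stands for normalised viability at a single listed concentration of the series.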

MDA-MB-468 [6] = assay: as above
Outline: as §2

BT-549 = assay: as above
Outline: as §2

Hs578T = assay: as above
Outline: as §2

MDA-MB-453 = assay: as above
Outline: as §2

MFM-223 = assay: as above
Outline: as §2

DU-4475 = assay: as above
Outline: as §2

SK-BR-3 [7] = assay: as above
Outline: as §2

HCC1599 = assay: as above
Outline: as §2

MDA-MB-231 = assay: as above
Outline: as §2

HDQ-P1 [8] = assay: as above
Outline: as §2

CAL-148 [9] = assay: as above
Outline: as §2

HCC1937 = assay: as above
Outline: as §2

CAL-85-1 [10] = assay: as above
Outline: as §2

N#CC[C@H](C1CCCC1)n1cc(-c2ncnc3[nH]ccc23)cn1 [Ruxolitinib]
Details | drug sensitivity score
CAL-51 | 0
CAL-85-1 [5] | 0
CAL-120 | 0
CAL-148 [4] | 0
HCC1143 | 0
HDQ-P1 [3] | 0
MDA-MB-468 [1] | 0
SK-BR-3 [2] | 0

normalised viability [%]
Details | 3 nM | 10 nM | 30 nM | 100 nM | 1000 nM | 10000 nM
BT-474 | – | 108 | – | – | 103 | 119
BT-549 | – | 86.3 | – | – | 90.9 | 73.4
CAL-85-1 [10] | 114 | – | 90.4 | 110 | – | –
CAL-148 [9] | 92 | – | 82.4 | 94.1 | – | –
DU-4475 | 103 | – | 106 | 121 | – | –
HCC1599 | – | 114 | – | – | 102 | 91.1
HCC1937 | – | 114 | – | – | 94.1 | 74
HDQ-P1 [8] | 84 | – | 83.6 | 104 | – | –
Hs578T | – | 108 | – | – | 104 | 93.5
MDA-MB-231 | – | 72.7 | – | – | 101 | 110
MDA-MB-453 | 86.8 | – | 89.2 | 93.9 | – | –
MDA-MB-468 [6] | – | 90.5 | – | – | 104 | 100
MFM-223 | – | 101 | – | – | 98.6 | 75.3
SK-BR-3 [7] | – | 95.4 | – | – | 87.3 | 103

C=CC[C@@H]1/C=C(\C)C[C@H](C)C[C@H](OC)[C@H]2O[C@@](O)(C(=O)C(=O)N3CCCC[C@H]3C(=O)O[C@H](/C(C)=C/[C@@H]3CC[C@@H](O)[C@H](OC)C3)[C@H](C)[C@@H](O)CC1=O)[C@H](C)C[C@@H]2OC [Tacrolimus]
Details | drug sensitivity score
CAL-51 | 0
CAL-85-1 [5] | 0
CAL-120 | 0
CAL-148 [4] | 0
HCC1143 | 0
HDQ-P1 [3] | 0
MDA-MB-468 [1] | 0
SK-BR-3 [2] | 0

normalised viability [%]
Details | 3 nM | 10 nM | 30 nM | 100 nM | 1000 nM | 10000 nM
BT-474 | – | 125 | – | – | 108 | 114
BT-549 | – | 89.5 | – | – | 103 | 89.8
CAL-85-1 [10] | 104 | – | 92.1 | 98.5 | – | –
CAL-148 [9] | 97.3 | – | 101 | 101 | – | –
DU-4475 | 99.8 | – | 90.9 | 99.5 | – | –
HCC1599 | – | 109 | – | – | 101 | 95.5
HCC1937 | – | 114 | – | – | 63.1 | 92.5
HDQ-P1 [8] | 116 | – | 120 | 133 | – | –
Hs578T | – | 104 | – | – | 103 | 87.8
MDA-MB-231 | – | 109 | – | – | 105 | 113
MDA-MB-453 | 112 | – | 96.8 | 103 | – | –
MDA-MB-468 [6] | – | 106 | – | – | 118 | 125
MFM-223 | – | 112 | – | – | 109 | 87.6
SK-BR-3 [7] | – | 93.5 | – | – | 105 | 108

C[C@]1(c2nc3c(C(N)=O)cccc3[nH]2)CCCN1 [Veliparib]
Details | drug sensitivity score
CAL-51 | 0
CAL-85-1 [5] | 0
CAL-120 | 0
CAL-148 [4] | 0
HCC1143 | 0
HDQ-P1 [3] | 0
MDA-MB-468 [1] | 0
SK-BR-3 [2] | 0

normalised viability [%]
Details | 3 nM | 10 nM | 30 nM | 100 nM | 1000 nM | 10000 nM
BT-474 | – | 101 | – | – | 103 | 104
BT-549 | – | 95.3 | – | – | 112 | 81.7
CAL-85-1 [10] | 87.9 | – | 84.9 | 84.7 | – | –
CAL-148 [9] | 89.3 | – | 86.4 | 85.6 | – | –
DU-4475 | 78.6 | – | 78.3 | 83.4 | – | –
HCC1599 | – | 100 | – | – | 98.3 | 100
HCC1937 | – | 72.2 | – | – | 70 | 61.7
HDQ-P1 [8] | 85.6 | – | 93.3 | 95.9 | – | –
Hs578T | – | 101 | – | – | 99.9 | 100
MDA-MB-231 | – | 80.8 | – | – | 90.3 | 94.8
MDA-MB-453 | 109 | – | 98.9 | 94.4 | – | –
MDA-MB-468 [6] | – | 113 | – | – | 105 | 98.9
MFM-223 | – | 88.1 | – | – | 90.3 | 103
SK-BR-3 [7] | – | 93.8 | – | – | 93.6 | 84.6

CS(=O)(=O)c1ccc(C(=O)Nc2ccc(Cl)c(-c3ccccn3)c2)c(Cl)c1 [Vismodegib]
Details | drug sensitivity score
CAL-51 | 0
CAL-85-1 [5] | 0
CAL-120 | 0
CAL-148 [4] | 0
HCC1143 | 0
HDQ-P1 [3] | 0
MDA-MB-468 [1] | 0
SK-BR-3 [2] | 0

normalised viability [%]
Details | 3 nM | 10 nM | 30 nM | 100 nM | 1000 nM | 10000 nM
BT-474 | – | 102 | – | – | 118 | 77.5
BT-549 | – | 102 | – | – | 112 | 79.2
CAL-85-1 [10] | 97.9 | – | 93.7 | 109 | – | –
CAL-148 [9] | 79.8 | – | 93.5 | 92.2 | – | –
DU-4475 | 107 | – | 110 | 110 | – | –
HCC1599 | – | 112 | – | – | 97.7 | 84.1
HCC1937 | – | 57.2 | – | – | 91.4 | 83.9
HDQ-P1 [8] | 100 | – | 96.5 | 88.8 | – | –
Hs578T | – | 106 | – | – | 108 | 93.3
MDA-MB-231 | – | 115 | – | – | 97.7 | 92
MDA-MB-453 | 106 | – | 113 | 104 | – | –
MDA-MB-468 [6] | – | 104 | – | – | 103 | 88.7
MFM-223 | – | 92.4 | – | – | 108 | 99.6
SK-BR-3 [7] | – | 107 | – | – | 105 | 95.2
